In patent US20230265082A1, “SUBSTITUTED 1,2,4-OXADIAZOLES AS SMALL MOLECULE INHIBITORS OF UBIQUITIN-SPECIFIC PROTEASE 28” (Dana-Farber Cancer Institute, Inc., priority 2020, published 2023):

Legend:
USP28 [1] = molecular target: T1, USP28 (Homo sapiens, UniProt Q96RU2); assay: Ubiquitin-Rhodamine110 assay; format: biochemical; details: USP28 at 1 nM, 30 minutes pre-incubation at room temperature, Ubiquitin-Rho110 125 nM
T1 sequence (Q96RU2 1-1077): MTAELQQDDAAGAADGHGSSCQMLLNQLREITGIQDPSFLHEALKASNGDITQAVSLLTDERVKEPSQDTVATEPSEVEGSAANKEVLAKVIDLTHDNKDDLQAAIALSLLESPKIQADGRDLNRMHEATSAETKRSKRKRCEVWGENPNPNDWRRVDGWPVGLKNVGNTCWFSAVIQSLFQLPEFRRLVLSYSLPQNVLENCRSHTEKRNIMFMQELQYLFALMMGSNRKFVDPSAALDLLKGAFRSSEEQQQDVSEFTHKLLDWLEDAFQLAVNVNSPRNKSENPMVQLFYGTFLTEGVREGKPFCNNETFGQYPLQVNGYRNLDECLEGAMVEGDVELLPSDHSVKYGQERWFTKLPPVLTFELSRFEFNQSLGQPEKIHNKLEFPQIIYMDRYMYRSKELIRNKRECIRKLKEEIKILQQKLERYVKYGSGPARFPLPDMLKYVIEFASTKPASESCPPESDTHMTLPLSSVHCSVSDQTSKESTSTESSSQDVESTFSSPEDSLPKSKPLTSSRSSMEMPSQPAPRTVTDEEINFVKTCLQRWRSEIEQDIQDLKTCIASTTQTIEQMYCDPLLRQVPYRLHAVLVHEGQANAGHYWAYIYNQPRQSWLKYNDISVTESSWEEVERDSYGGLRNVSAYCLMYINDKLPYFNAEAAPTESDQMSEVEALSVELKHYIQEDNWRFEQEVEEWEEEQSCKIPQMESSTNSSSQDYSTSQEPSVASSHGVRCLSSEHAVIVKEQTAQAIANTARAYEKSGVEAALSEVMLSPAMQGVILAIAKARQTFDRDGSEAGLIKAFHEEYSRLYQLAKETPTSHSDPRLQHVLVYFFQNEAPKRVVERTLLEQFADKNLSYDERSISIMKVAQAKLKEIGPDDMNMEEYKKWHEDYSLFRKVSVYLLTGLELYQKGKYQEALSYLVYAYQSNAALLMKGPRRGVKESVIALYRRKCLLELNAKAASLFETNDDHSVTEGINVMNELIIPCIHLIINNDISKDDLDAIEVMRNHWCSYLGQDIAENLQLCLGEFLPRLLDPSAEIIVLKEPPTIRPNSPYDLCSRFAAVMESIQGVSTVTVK
Experimental: USP28 (at 1 nM) was pre-incubated with different concentrations of inhibitors or DMSO as a control in 50 mM Tris pH 8, 50 mM NaCl, 0.002% Tween-20, 5 mM DTT. Compounds and protein were incubated for 30 minutes at room temperature prior to the addition of Ubiquitin-Rho110 (Boston Biochem) substrate for a final concentration of 125 nM. The initial rate of the reaction was measured by collecting fluorescence data at one-minute interval over 30-minute period using a Clariostar® fluorescence plate reader at excitation and emission wavelength of 485 nm and 535 nm, respectively. The calculated initial rate values were plotted against inhibitor concentrations to determine IC50s. All the experimental data were plotted using GraphPad Prism®.

USP28 [2] = molecular target: T1, USP28; assay: Competitive activity-based protein profiling (target engagement, Ub-VME probe, Western blot); format: binding; details: K562 cells lysed, treated with compound for 1 h followed by Ub-VME; Western blot (FIG. 3)
Experimental: K562 cells were lysed and treated with indicated concentrations of compound 8 for 1 h followed by incubation with Ub-VME. Ub-VME covalently modifies USP28, resulting in higher MW band observed by Western blot.
Cells were pelleted, washed with PBS buffer, lysed on ice (20 mM Tris pH 8, 150 mM NaCl, 1% NP-40, 10% glycerol, 1 mM TCEP, phosphatase inhibitor cocktails (Sigma P5726 and Calbiochem 524624), and protease inhibitors (pepstatin, leupeptin, PMSF, and aprotinin), and clarified by centrifugation. Protein content was quantified by BCA and diluted to 2 mg/mL in lysis buffer. Compounds were added at desired concentrations and incubated at room temperature for 30 minutes. Samples were then supplemented with 2 uM HA-Ub-VS and incubated at room temperature with shaking for 15 minutes. Reactions were quenched with 4×LDS sample buffer (Thermo Fisher B0007) supplemented with 10% BME, vortexed vigorously, and heated to 95° C. for 5 minutes. Samples were resolved by SDS-PAGE and analyzed by Western blot with the indicated antibodies.

O=[N+]([O-])c1cc(Cc2nc(-c3ccc(Cl)nc3)no2)ccc1Cl [Compound 31] gave an IC50 (USP28 [1]) of 1 to 10 µM.
Molecule O=c1ccc(-c2noc(Cc3ccc(Cl)c(Cl)c3)n2)cn1Cc1ccccc1 [Compound 10] has an IC50 (USP28 [1]) of 1 to 10 µM.
Clc1ccc(-c2noc(Cc3ccc(Cl)c(Cl)c3)n2)cn1 [Compound 5] gave an IC50 (USP28 [1]) of under 1 µM.
O=C(O)c1cccc(-c2noc(Cc3ccc(Cl)c(Cl)c3)n2)c1 [Compound 18] showed an IC50 (USP28 [1]) of 10 to 100 µM.
Molecule O=c1ccc(-c2nc(Cc3ccc(Cl)c(Cl)c3)no2)c[nH]1 [Compound 9] has an IC50 (USP28 [1]) of 1 to 10 µM.
O=C(Nc1ccc(-c2noc(Cc3ccc(Cl)c(Cl)c3)n2)cn1)[C@H]1CCNC1 [Compound 32] showed an IC50 (USP28 [1]) of 1 to 10 µM.
O=c1ccc(-c2noc(Cc3cc(F)cc(F)c3)n2)c[nH]1 [Compound 16] was tested, and the IC50 (USP28 [1]) was 1 to 10 µM.
With O=c1ccc(-c2nc(-c3ccc(OC(F)(F)F)cc3)no2)cn1Cc1ccnc(Cl)c1 [Compound 11] the IC50 (USP28 [1]) was over 100 µM.
O=c1ccc(-c2noc(Cc3ccc(Cl)cc3)n2)c[nH]1 [Compound 4] showed an IC50 (USP28 [1]) of 1 to 10 µM.
Work on CCC(c1ccccc1)c1nc(-c2ccc(Cl)nc2)no1 (centres unmarked) [Compound 20] yielded an IC50 (USP28 [1]) of over 100 µM.
In the case of Clc1ccc(-c2noc(Cc3ccc4ccccc4c3)n2)cn1 [Compound 22], the IC50 (USP28 [1]) is reported as under 1 µM.
With Nc1ccc(-c2noc(Cc3ccc(Cl)c(Cl)c3)n2)cn1 [Compound 19] the IC50 (USP28 [1]) was under 1 µM.
N[C@@H](Cc1ccccc1)c1nc(-c2ccc(=O)[nH]c2)no1 [Compound 17] showed an IC50 (USP28 [1]) of over 100 µM.
With O=c1ccc(-c2noc(Cc3ccccc3)n2)c[nH]1 [Compound 7] the IC50 (USP28 [1]) was 1 to 10 µM.
With c1ccc(-c2nc(-c3cccnc3)no2)nc1 [Compound 2] the IC50 (USP28 [1]) was over 100 µM.
Work on Clc1ccc(-c2noc(Cc3cccc4ccccc34)n2)cn1 [Compound 23] yielded an IC50 (USP28 [1]) of 1 to 10 µM.
Molecule Nc1ccc(Cc2nc(-c3ccc(Cl)nc3)no2)cc1 [Compound 30] has an IC50 (USP28 [1]) of 10 to 100 µM.
In the case of Clc1ccc(Cc2nc(-c3ccc(Cl)nc3)no2)cc1 [Compound 3], the IC50 (USP28 [1]) is reported as 1 to 10 µM.
O=c1ccc(-c2noc(Cc3cccc(Cl)c3)n2)c[nH]1 [Compound 28] showed an IC50 (USP28 [1]) of under 1 µM.
In the case of O=c1ccc(-c2noc(Cc3ccc(Cl)c(Cl)c3)n2)c[nH]1 [Compound 8], the IC50 (USP28 [1]) is reported as under 1 µM and the “labeling of USP28 by covalent Ub-VME probe (target engagement)” value (USP28 [2]) is reported as “prevents labeling of USP28 by the covalent Ub-VME probe”.
Molecule Clc1ccc(-c2noc(Cc3ccccc3)n2)cn1 [Compound 6] has an IC50 (USP28 [1]) of under 1 µM.
CN(C)c1ccc(-c2noc(Cc3ccc(Cl)c(Cl)c3)n2)cn1 [Compound 13] showed an IC50 (USP28 [1]) of over 100 µM.
Molecule CN1CCN(c2cc(Cn3cc(-c4nc(-c5ccc(OC(F)(F)F)cc5)no4)ccc3=O)ccn2)CC1 [Compound 12] has an IC50 (USP28 [1]) of over 100 µM.
Clc1cccc(Cc2nc(-c3ccc(Cl)nc3)no2)c1 [Compound 29] was tested, and the IC50 (USP28 [1]) was 1 to 10 µM.
c1ccc2cc(Cc3nc(-c4ccncc4)no3)ccc2c1 [Compound 1] was tested, and the IC50 (USP28 [1]) was 1 to 10 µM.
Molecule COC(=O)c1ccc(Cc2noc(Cc3ccc(Cl)c(Cl)c3)n2)cc1 [Compound 14] has an IC50 (USP28 [1]) of over 100 µM.
O=C(O)c1ccc(Cc2noc(Cc3ccc(Cl)c(Cl)c3)n2)cc1 [Compound 15] gave an IC50 (USP28 [1]) of 10 to 100 µM.
CCC(c1ccccc1)c1nc(-c2ccc(=O)[nH]c2)no1 (centres unmarked) [Compound 21] was tested, and the IC50 (USP28 [1]) was over 100 µM.
